Measurements reported in US7238725B2, “Tricyclic compounds useful for the treatment of inflammatory and allergic disorders: process for their preparation and pharmaceutical compositions containing them” (Glenmark Pharmaceuticals Ltd., priority 2002, dated 2007).
Like-named read-outs stand apart in the source and are kept apart here.

Tests used:
PDE4 = assay: Cell Based Assay for PDE4 Inhibition: cAMP elevation in whole U937 cells; conditions: 1 μM PGE1, normalized over PGE1
Method: Cell Based Assay for PDE4 Inhibition:
cAMP elevation studies were conducted in whole U937 cells. U937 cells (ATCC) were grown in RPMI medium containing 10% FBS, 1% pen-strep solution, 1% L-glutamine for 48 hrs. On the day of assay, the cells were washed twice with plain RPM1 medium by centrifuging at 800 rpm for 5 mins. Cells were resuspended in plain RPM1 medium followed by cell number and viability assessment using a trypan blue stain. Cells (0.15-0.2 mio cells per well) were seeded in a 96 well microtitre plate and incubated with various drugs/DMSO vehicle at 37° C. for 15 min. cAMP generation was started by addition of 1 μM PGE1 for 15 mins. The incubation was terminated by addition of cell lysis buffer from cAMP estimation kit. Lysate was used for cAMP quantitatin by chemiluminescence method (DiscoveRX kits). cAMP values were normalized over PGE1. EC50 values were calculated from dose response curves by nonlinear regression analysis using PRISM software.

PDE4 enzyme = assay: Inhibition of Phosphodiesterase Enzymes (PDE4), [3H]cAMP hydrolysis; type: biochemical
Method: Inhibition of Phosphodiesterase Enzymes (PDE4)
In this assay, PDE4 enzyme converts [^3H] cAMP to the corresponding [^3H] 5′-AMP in proportion to the amount of PDE4 present The [^3H] 5′-AMP then was quantitatively converted to free [^3H] adenosine and phosphate by the action of snake venom 5′-nucleotidase.
The assay was performed with modification of the method of Thompson and Appleman (Biochemistry; 1971; 10; 311-316) and Schwartz and Passoneau (Proc. Natl. Acad. Sci. U.S.A. 1974; 71; 3844-3848), both references incorporated herein by reference in their entirety, at 34° C. In a 200 ul total reaction mixture, the reaction mixture contained 12.5 mM of Tris, 5 mM MgCl2, 1 μM cAMP (cold) and ^3H cAMP (0.1 uCi), (Amersham). […] Drug samples were then added in the reaction mixture (25 μl/tube). The assay was initiated by addition of enzyme mix (75 μl) and the mixture was incubated for 20 minutes at 34° C. The reaction was stopped by boiling the tubes for 2 mins at 100° C. in a water bath. After cooling on ice for 5 minutes and addition of 50 ug/reaction of 5′-nucleotidase snake venom from Crotalus atrox incubation was carried out again for 20 min. at 34° C. The unreacted substrate was separated from (^3H) Adenosine by addition of Dowex AG 1-X8 (Biorad Lab), (400 ul) which was prequilibrated (1:1:1) in water and ethanol. Reaction mixture was then thoroughly mixed, placed on ice for 15 minutes, vortexed and centrifuged at 14,000 r.p.m. for 2 mins. After centrifugation, a sample of the supernatant was taken and added in 24 well optiplates containing Scintillant (1 ml) and mixed well. The samples in the plates were then determined for radioactivity in a Top Counter and the PDE4 activity was estimated. PDE4 enzyme was present in quantities that yield <30% total hydrolysis of substrate (linear assay conditions).
(§1) Results were expressed as percent inhibition (IC50) in nM concentrations. The IC50 values were determined from the concentration curves by nonlinear regression analysis.
The IC50 value for the compound examined was determined from concentration-response curves in which varying range of concentrations were considered as shown in table 1

PDE 3 (cGP-inhibited) = assay: Activity against other Phosphodiesterase enzymes: PDE 3; type: biochemical; conditions: read-out: IC50 values PDE3
Method: (§2) Additionally, activity of the compounds were tested against other Phosphodiesterase enzymes, namely, PDE 1 (Ca^2+/calmodulin-dependent), PDE 2 (cGP-stimulated), PDE 3 (cGP-inhibited), PDE 5 (cGP-specific) and PDE 6 (cGP-specific, photoreceptor).
as §1

[1] = molecular target: PDE 6 (cGP-specific, photoreceptor); assay: Activity against other Phosphodiesterase enzymes: PDE 6; type: biochemical
Method: as §2, §1

PDE 2 (cGP-stimulated) = PDE 2 (cGP-stimulated) (Homo sapiens, UniProt O00408); assay: Activity against other Phosphodiesterase enzymes: PDE 2; type: biochemical; conditions: read-out: IC50 values PDE2
Method: as §2, §1

[2] = molecular target: PDE 1 (Ca2+/calmodulin-dependent); assay: Activity against other Phosphodiesterase enzymes: PDE 1; type: biochemical
Method: as §2, §1

[3] = PDE4 enzyme, 1 μM cAMP and 3H cAMP, 34° C., read-out: IC50

PDE 2 (cGP-stimulated), sequence (O00408 whole entry): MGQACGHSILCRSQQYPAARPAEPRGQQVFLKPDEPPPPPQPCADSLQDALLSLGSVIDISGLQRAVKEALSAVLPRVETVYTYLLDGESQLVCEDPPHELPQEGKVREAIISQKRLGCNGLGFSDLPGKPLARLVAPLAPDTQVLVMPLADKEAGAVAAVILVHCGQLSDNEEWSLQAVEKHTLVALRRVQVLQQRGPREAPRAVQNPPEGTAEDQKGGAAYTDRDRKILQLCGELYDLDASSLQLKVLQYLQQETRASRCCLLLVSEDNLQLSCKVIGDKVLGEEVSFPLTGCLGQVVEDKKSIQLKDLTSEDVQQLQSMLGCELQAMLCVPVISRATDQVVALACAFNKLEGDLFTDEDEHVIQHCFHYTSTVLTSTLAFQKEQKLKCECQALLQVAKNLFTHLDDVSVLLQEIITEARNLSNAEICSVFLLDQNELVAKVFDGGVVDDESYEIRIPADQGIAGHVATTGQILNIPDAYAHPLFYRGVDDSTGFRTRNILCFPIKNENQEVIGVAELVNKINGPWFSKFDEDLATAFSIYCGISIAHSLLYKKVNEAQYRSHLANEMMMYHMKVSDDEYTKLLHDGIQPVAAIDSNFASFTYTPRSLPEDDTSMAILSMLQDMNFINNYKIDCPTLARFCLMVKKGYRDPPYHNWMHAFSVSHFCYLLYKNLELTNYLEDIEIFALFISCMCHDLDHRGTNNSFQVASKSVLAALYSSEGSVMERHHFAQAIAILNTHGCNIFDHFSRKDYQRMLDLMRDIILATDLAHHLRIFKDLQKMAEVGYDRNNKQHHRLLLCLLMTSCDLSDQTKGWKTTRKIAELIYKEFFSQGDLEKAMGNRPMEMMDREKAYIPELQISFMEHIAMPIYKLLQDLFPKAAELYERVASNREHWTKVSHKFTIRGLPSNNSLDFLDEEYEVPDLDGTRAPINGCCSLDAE

| IC50 (PDE4 enzyme; [3]) [nM] | melting point | Compound | EC50 (PDE4) [nM] | further results |
| --- | --- | --- | --- | --- |
| 2.54 |  | O=C(Nc1c(Cl)c[n+]([O-])cc1Cl)c1ccc(OC(F)F)c2oc3ccc(C(F)(F)F)cc3c12 [Example 13, N-(3,5-dichloropyrid-4-yl)-4-difluoromethoxy-trifluoromethyl dibenzo[b,d]furan-1-carboxamide-N1-oxide] | 128 |  |
| 6.41 | 228 °C | O=C(Nc1ccncc1)c1ccc(OC(F)F)c2oc3ccc(C(F)(F)F)cc3c12 [Example 14, N-(pyrid-4-yl)-4-difluoromethoxy-8-trifluoromethyl dibenzo[b,d]furan-1-carboxamide] |  |  |
| 4.54 | 304 °C (dec.) | COc1ccc(C(=O)Nc2c(Cl)cncc2Cl)c2c1oc1ccc(I)cc12 [Example 45, N-(3,5-dichloropyrid-4-yl)-4-methoxy-8-iodo-dibenzo[b,d]furan-1-carboxamide] | > 300 |  |
| 9.14 |  | COc1ccc(C(=O)Nc2ccncc2)c2c1oc1ccc(C(F)(F)F)cc12 [Example 11, N(pyrid-4-yl)-4-methoxy-8-trifluoromethyl dibenzo[b,d]furan-1-carboxamide] | > 220 |  |
| 4.47 | > 270 °C | Nc1ccc2oc3c(OC(F)F)ccc(C(=O)Nc4c(Cl)cncc4Cl)c3c2c1 [Example 59, N-(3,5-dichloropyrid-4-yl)-4-difluoromethoxy-8-amino-dibenzo[b,d]furan-1-carboxamide] | 49.2 |  |
| 1.56 |  | COc1ccc(C(=O)Nc2c(Cl)cncc2Cl)c2c1oc1ccc(C(F)(F)F)cc12 [Example 9, N-(3,5-dichloropyrid-4-yl)-4-methoxy-8-trifluoromethyl dibenzo[b,d]furan-1-carboxamide] | 17.6 |  |
| 111 | 242 °C | O=C(Nc1c(Cl)cncc1Cl)c1ccc(OCC2CC2)c2oc3ccccc3c12 [Example 25, N-(3,5-dichloropyrid-4-yl)-4-cyclopropylmethoxy dibenzo[b,d]furan-1-carboxamide] |  |  |
| 1.74 |  | COc1ccc(C(=O)Nc2c(Cl)cncc2Cl)c2c1oc1ccc(C#N)cc12 [Example 57, N-(3,5dichloropyrid-4-yl)-4-methoxy-8-cyano-dibenzo[b,d]furan-1-carboxamide] | 73.7 |  |
| 0.8 | 302 °C | COc1ccc(C(=O)Nc2c(Cl)cncc2Cl)c2c1oc1ccccc12 [Example 1, N-(3,5-dichloropyrid-4-yl)-4-methoxy dibenzo[b,d]furan-1-carboxamide] | 83.7 | IC50 (PDE 3 (cGP-inhibited)): 61800 nM; % inhibition at 100 µM [1]: 36%; IC50 (PDE 2 (cGP-stimulated)): 69100 nM; % inhibition at 100 µM [2]: 44%; IC50 (PDE4 enzyme; Table 1, read-out: IC50 values PDE4): 0.8 nM |
| 0.839 | 300 °C | COc1ccc(C(=O)Nc2c(Cl)cncc2Cl)c2c1oc1ccc(Cl)cc12 [Example 41, N-(3,5-dichloropyrid-4-yl)-4-methoxy-8-chloro-dibenzo[b,d]furan-1-carboxamide] | 200 |  |
| 336 | 192 °C | COc1ccc(C(=O)Nc2cccnc2Cl)c2c1oc1ccccc12 [Example 5, N-(2-chloropyrid-3-yl)-4-methoxy dibenzo[b,d]furan-1-carboxamide] |  |  |
| 2.85 |  | O=C(Nc1c(Cl)c[n+]([O-])cc1Cl)c1ccc(OC(F)F)c2oc3ccccc3c12 [Example 56, N-(3,5-dichloropyrid-4-yl)-4-difluoromethoxy-dibenzo[b,d]furan-1-carboxamide-N-oxide] | 49.2 |  |
| 1.2 | 249 °C (dec.) | COc1ccc(C(=O)Nc2c(Cl)cncc2Cl)c2c1oc1ccc(N)cc12 [Example 55, N-(3,5-dichloropyrid-4-yl)-4-methoxy-8-amino-dibenzo[b,d]furan-1-carboxamide] | 47.5 |  |
| 20.2 |  | COc1ccc(C(=O)Nc2cc[n+]([O-])cc2)c2c1oc1ccccc12 [Example 4, N(pyrid-4-yl)-4-methoxy dibenzo[b,d]furan-1-carboxamide-N1-oxide] | > 300 |  |
| 26 | 226 °C | COc1ccc(C(=O)Nc2cccnc2)c2c1oc1ccccc12 [Example 7, N-(pyrid-3-yl)-4-methoxy dibenzo[b,d]furan-1-carboxamide] |  |  |
|  | 155 to 157 °C | O=C(Nc1ccc(Cl)cn1)c1ccc(OC(F)F)c2oc3ccccc3c12 [Example 24, N-(5-chloropyrid-2-yl)-4-difluoromethoxy dibenzo[b,d]furan-1-carboxamide] |  |  |
| 2.54 | 270 °C | O=C(Nc1c(Cl)cncc1Cl)c1ccc(OC(F)F)c2oc3ccccc3c12 [Example 19, N-(3,5-dichloropyrid-4-yl)-4-difluoromethoxy dibenzo[b,d]furan-1-carboxamide] | 20.4 |  |
| 1.21 | 228 °C | O=C(Nc1c(Cl)cncc1Cl)c1ccc(OC(F)F)c2oc3ccc(C(F)(F)F)cc3c12 [Example 12, N-(3,5-dichloropyrid-4-yl)-4-difluoromethoxy-8-trifluoromethyl dibenzo[b,d]furan-1-carboxamide] | 140 |  |
| 1.68 |  | COc1ccc(C(=O)Nc2c(Cl)c[n+]([O-])cc2Cl)c2c1oc1ccc(C(F)(F)F)cc12 [Example 10, N-(3,5-dichloropyrid-4-yl)-4-methoxy-8-trifluoromethyl dibenzo[b,d]furan-1-carboxamide-N1-oxide] | 117 |  |
| 10 | > 270 °C | O=C(Nc1c(Cl)cncc1Cl)c1ccc(OC(F)F)c2oc3ccc([N+](=O)[O-])cc3c12 [Example 58, N-(3,5-dichloropyrid-4-yl)-4-difluoromethoxy-8-nitro-dibenzo[b,d]furan-1-carboxamide] | 148 |  |
| 2.85 |  | COc1ccc(C(=O)Nc2c(Cl)cncc2Cl)c2c1oc1ccc([N+](=O)[O-])cc12 [Example 38, N-(3,5-dichloropyrid-4-yl)-4-methoxy-8-nitro dibenzo[b,d]furan-1-carboxamide] | 87.9 |  |
| 4.92 | 308 °C | COc1ccc(C(=O)Nc2c(Cl)cncc2Cl)c2c1oc1ccc(Br)cc12 [Example 42, N-(3,5-dichloropyrid-4-yl)-4-methoxy-8-bromo-dibenzo[b,d]furan-1-carboxamide] | 44.2 |  |
|  | 265 to 270 °C | COc1ccc(C(=O)Nc2c(Cl)c[n+]([O-])cc2Cl)c2c1oc1ccccc12 [Example 2, N-(3,5-dichloropyrid-4-yl)-4-methoxy dibenzo[b,d]furan-1-carboxamide-N1-oxide] | 23.8 |  |
